# In ChEMBL document CHEMBL1127385, “Synthesis and diuretic activity of alkyl- and arylguanidine analogs of N,N'-dicyclohexyl-4-morpholinecarboxamidine in rats and dogs” (J Med Chem, 1994):
# Values joined by “and” are separate entries in the source; they are usually repeats but may differ in a detail not shown here. Equal entries are not always repeated.
# Legend:
# Canis familiaris [1] = assay: Total electrolytic excretion of potassium in urine of dogs after intravenous administration of 3.03 uM/Kg of drug; format: ADME, organism-based, Canis lupus familiaris; settings: dog, in vivo
# Canis familiaris [2] = assay: Total electrolytic excretion of potassium in urine of dogs after intravenous administration of 30.3 uM/Kg of drug; format: ADME, organism-based, Canis lupus familiaris; settings: dog, in vivo
# Rattus norvegicus [3] = assay: Total electrolytic excretion of chlorine in urine of rats after peroral administration of 341 uM/Kg of drug; format: ADME, organism-based; settings: in vivo, po
# Canis familiaris [4] = assay: Total electrolytic excretion of sodium in urine of dogs after peroral administration of 102 uM/Kg of drug; format: ADME, organism-based, Canis lupus familiaris; settings: dog, in vivo, po
# Canis familiaris [5] = assay: Total electrolytic excretion of sodium in urine of dogs after peroral administration of 34.1 uM/Kg of drug; format: ADME, organism-based, Canis lupus familiaris; settings: dog, in vivo, po
# Canis familiaris [6] = assay: Total electrolytic excretion of sodium in urine of dogs after peroral administration of 50.8 uM/Kg of drug; format: ADME, organism-based, Canis lupus familiaris; settings: dog, in vivo, po
# Canis familiaris [7] = assay: Total electrolytic excretion of sodium in urine of dogs after peroral administration of 68.1 uM/Kg of drug; format: ADME, organism-based, Canis lupus familiaris; settings: dog, in vivo, po
# Rattus norvegicus [8] = assay: Total electrolytic excretion of sodium in urine of rats after peroral administration of 102 uM/Kg of drug; format: ADME, organism-based; settings: in vivo, po
# Rattus norvegicus [9] = assay: Total electrolytic excretion of potassium in urine of rats after peroral administration of 341 uM/Kg of drug; format: ADME, organism-based; settings: in vivo, po
# Rattus norvegicus [10] = assay: Total electrolytic excretion of potassium in urine of rats after peroral administration of 68.1 uM/Kg of drug; format: ADME, organism-based; settings: in vivo, po
# Rattus norvegicus [11] = assay: Total electrolytic excretion of chlorine in urine of rats after peroral administration of 102 uM/Kg of drug; format: ADME, organism-based; settings: in vivo, po
# Canis familiaris [12] = assay: Total electrolytic excretion of chlorine in urine of dogs after peroral administration of 50.8 uM/Kg of drug; format: ADME, organism-based, Canis lupus familiaris; settings: dog, in vivo, po
# Canis familiaris [13] = assay: Total electrolytic excretion of chlorine in urine of dogs after peroral administration of 68.1 uM/Kg of drug; format: ADME, organism-based, Canis lupus familiaris; settings: dog, in vivo, po
# Canis familiaris [14] = assay: Total electrolytic excretion of chlorine in urine of dogs after intravenous administration of 3.03 uM/Kg of drug; format: ADME, organism-based, Canis lupus familiaris; settings: dog, in vivo
# Canis familiaris [15] = assay: Total electrolytic excretion of chlorine in urine of dogs after intravenous administration of 34.1 uM/Kg of drug; format: ADME, organism-based, Canis lupus familiaris; settings: dog, in vivo
# Canis familiaris [16] = assay: Total electrolytic excretion of chlorine in urine of dogs after intravenous administration of 9.09 uM/Kg of drug; format: ADME, organism-based, Canis lupus familiaris; settings: dog, in vivo
# Canis familiaris [17] = assay: Total electrolytic excretion of chlorine in urine of dogs after peroral administration of 102 uM/Kg of drug; format: ADME, organism-based, Canis lupus familiaris; settings: dog, in vivo, po
# Canis familiaris [18] = assay: Total electrolytic excretion of sodium in urine of dogs after intravenous administration of 3.03 uM/Kg of drug; format: ADME, organism-based, Canis lupus familiaris; settings: dog, in vivo
# Canis familiaris [19] = assay: Total electrolytic excretion of sodium in urine of dogs after intravenous administration of 30.3 uM/Kg of drug; format: ADME, organism-based, Canis lupus familiaris; settings: dog, in vivo
# Canis familiaris [20] = assay: Total electrolytic excretion of sodium in urine of dogs after intravenous administration of 34.1 uM/Kg of drug; format: ADME, organism-based, Canis lupus familiaris; settings: dog, in vivo
# Canis familiaris [21] = assay: Tested for the diuretic activity by measuring the urinary volume after peroral administering 50.8 uM/Kg of drug in dogs; format: ADME, organism-based, Canis lupus familiaris, Urine; settings: dog, in vivo, po
# Canis familiaris [22] = assay: Tested for the diuretic activity by measuring the urinary volume after peroral administering 68.1 uM/Kg of drug in dogs; format: ADME, organism-based, Canis lupus familiaris, Urine; settings: dog, in vivo, po
# Rattus norvegicus [23] = assay: Total electrolytic excretion of sodium in urine of rats after peroral administration of 341 uM/Kg of drug; format: ADME, organism-based; settings: in vivo, po
# Canis familiaris [24] = assay: Tested for the diuretic activity by measuring the urinary volume after intravenous administering 9.09 uM/Kg of drug in dogs; format: ADME, organism-based, Canis lupus familiaris, Urine; settings: dog, in vivo
# Canis familiaris [25] = assay: Tested for the diuretic activity by measuring the urinary volume after peroral administering 102 uM/Kg of drug in dogs; format: ADME, organism-based, Canis lupus familiaris, Urine; settings: dog, in vivo, po
# Canis familiaris [26] = assay: Tested for the diuretic activity by measuring the urinary volume after intravenous administering 30.3 uM/Kg of drug in dogs; format: ADME, organism-based, Canis lupus familiaris, Urine; settings: dog, in vivo
# Canis familiaris [27] = assay: Tested for the diuretic activity by measuring the urinary volume after intravenous administering 34.1 uM/Kg of drug in dogs; format: ADME, organism-based, Canis lupus familiaris, Urine; settings: dog, in vivo
# Canis familiaris [28] = species on record: Canis familiaris; assay: Systemic cardio vascular Hemodynamics of cardiac index was measured in Beagle dogs after giving the dose of MNX; format: functional, Canis lupus familiaris, Heart
# Canis familiaris [29] = species on record: Canis familiaris; assay: Systemic cardio vascular Hemodynamics of cardiac index was measured in Beagle dogs in pretreatment control group; format: functional, Canis lupus familiaris, Heart
# Canis familiaris [30] = species on record: Canis familiaris; assay: Systemic cardio vascular Hemodynamics of heart rate was measured in Beagle dogs after giving the dose of MNX plus the drug; format: functional, Canis lupus familiaris
# Canis familiaris [31] = species on record: Canis familiaris; assay: Systemic cardio vascular Hemodynamics of heart rate was measured in Beagle dogs in pretreatment control group; format: functional, Canis lupus familiaris
# Canis familiaris [32] = species on record: Canis familiaris; assay: Systemic cardio vascular Hemodynamics of mean arterial pressure was measured in Beagle dogs after giving the dose of MNX plus the drug; format: functional, Canis lupus familiaris, Heart
# Canis familiaris [33] = species on record: Canis familiaris; assay: Systemic cardio vascular Hemodynamics of mean arterial pressure was measured in Beagle dogs in pretreatment control group; format: functional, Canis lupus familiaris, Heart
# Canis familiaris [34] = species on record: Canis familiaris; assay: Systemic cardio vascular Hemodynamics of stroke index was measured in Beagle dogs after giving the dose of MNX; format: functional, Canis lupus familiaris, Heart
# Canis familiaris [35] = species on record: Canis familiaris; assay: Systemic cardio vascular Hemodynamics of total peripheral resistance was measured in Beagle dogs after giving the dose of MNX; format: functional, Canis lupus familiaris, Heart
# Canis familiaris [36] = species on record: Canis familiaris; assay: Systemic cardio vascular Hemodynamics of total peripheral resistance was measured in Beagle dogs in pretreatment control group; format: functional, Canis lupus familiaris, Heart
# Canis familiaris [37] = species on record: Canis familiaris; assay: Tissue vascular resistance of large intestine was measured in Beagle dogs after giving the dose of MNX plus the drug; format: functional, Canis lupus familiaris
# Canis familiaris [38] = species on record: Canis familiaris; assay: Tissue vascular resistance of left ventricle was measured in Beagle dogs after giving the dose of MNX; format: functional, Canis lupus familiaris, Heart left ventricle
# Canis familiaris [39] = species on record: Canis familiaris; assay: Tissue vascular resistance of left ventricle was measured in Beagle dogs before treatment; format: functional, Canis lupus familiaris, Heart left ventricle
# Canis familiaris [40] = species on record: Canis familiaris; assay: Tissue vascular resistance of left ventricle was measured in Beagle dogs before treatment after giving the dose of MNX plus the drug; format: functional, Canis lupus familiaris, Heart left ventricle
# Canis familiaris [41] = species on record: Canis familiaris; assay: Tissue vascular resistance of pancreas was measured in Beagle dogs after giving the dose of MNX; format: functional, Canis lupus familiaris
# Canis familiaris [42] = species on record: Canis familiaris; assay: Tissue vascular resistance of pancreas was measured in Beagle dogs after giving the dose of MNX plus the drug; format: functional, Canis lupus familiaris
# Canis familiaris [43] = species on record: Canis familiaris; assay: Tissue vascular resistance of pancreas was measured in Beagle dogs before treatment; format: functional, Canis lupus familiaris
# Canis familiaris [44] = species on record: Canis familiaris; assay: Tissue vascular resistance of right atrium was measured in Beagle dogs after giving the dose of MNX; format: functional, Canis lupus familiaris, Cardiac atrium
# Canis familiaris [45] = species on record: Canis familiaris; assay: Tissue vascular resistance of right atrium was measured in Beagle dogs after giving the dose of MNX plus the drug; format: functional, Canis lupus familiaris, Cardiac atrium
# Canis familiaris [46] = species on record: Canis familiaris; assay: Tissue vascular resistance of right atrium was measured in Beagle dogs before treatment; format: functional, Canis lupus familiaris, Cardiac atrium
# Rattus norvegicus [47] = assay: Ratio of Total electrolytic excretion of sodium and potassium in urine of rats after intravenous administration of 3.03 uM/Kg of drug; format: ADME, organism-based; settings: in vivo
# Rattus norvegicus [48] = assay: Ratio of Total electrolytic excretion of sodium and potassium in urine of rats after intravenous administration of 30.3 uM/Kg of drug; format: ADME, organism-based; settings: in vivo
# Rattus norvegicus [49] = assay: Ratio of Total electrolytic excretion of sodium and potassium in urine of rats after intravenous administration of 34.1 uM/Kg of drug; format: ADME, organism-based; settings: in vivo
# Rattus norvegicus [50] = assay: Ratio of Total electrolytic excretion of sodium and potassium in urine of rats after intravenous administration of 9.09 uM/Kg of drug; format: ADME, organism-based; settings: in vivo
# Rattus norvegicus [51] = assay: Ratio of Total electrolytic excretion of sodium and potassium in urine of rats after peroral administration of 341 uM/Kg of drug; format: ADME, organism-based; settings: in vivo, po
# Rattus norvegicus [52] = assay: Ratio of Total electrolytic excretion of sodium and potassium in urine of rats after peroral administration of 50.8 uM/Kg of drug; format: ADME, organism-based; settings: in vivo, po
# Rattus norvegicus [53] = assay: Ratio of Total electrolytic excretion of sodium and potassium in urine of rats after peroral administration of 34.1 uM/Kg of drug; format: ADME, organism-based; settings: in vivo, po
# Canis familiaris [54] = assay: Total electrolytic excretion of chlorine in urine of dogs after intravenous administration of 30.3 uM/Kg of drug; format: ADME, organism-based, Canis lupus familiaris; settings: dog, in vivo
compound,measurement,setting,value
C1CCC(N=C(NC2CCCCC2)N2CCOCC2)CC1,Excretion K+,Canis familiaris [1],1.2 m equiv
same,Excretion K+,Canis familiaris [2],1.6 m equiv
same,Excretion Cl-,Rattus norvegicus [3],1.64 m equiv
same,Excretion Na+,Canis familiaris [4],22.5 m equiv
same,Excretion Na+,Canis familiaris [5],9.9 m equiv
same,Excretion Na+,Canis familiaris [6],11.9 m equiv
same,Excretion Na+,Canis familiaris [7],14 m equiv
same,Excretion Na+,Rattus norvegicus [8],1.56 m equiv
same,Excretion K+,Rattus norvegicus [9],0.34 m equiv
same,Excretion K+,Rattus norvegicus [10],2 m equiv
same,Excretion Cl-,Rattus norvegicus [11],1.65 m equiv
same,Excretion Cl-,Canis familiaris [12],9.8 m equiv
same,Excretion Cl-,Canis familiaris [13],12.3 m equiv
same,Excretion Cl-,Canis familiaris [14],5.4 m equiv
same,Excretion Cl-,Canis familiaris [15],16.4 m equiv
same,Excretion Cl-,Canis familiaris [16],9.6 m equiv
same,Excretion Cl-,Canis familiaris [17],19.6 m equiv
same,Excretion Na+,Canis familiaris [18],8.1 m equiv
same,Excretion Na+,Canis familiaris [19],13.1 m equiv
same,Excretion Na+,Canis familiaris [20],18.6 m equiv
same,V,Canis familiaris [21],62 mL
same,V,Canis familiaris [22],91 mL
same,Excretion Na+,Rattus norvegicus [23],1.73 m equiv
same,V,Canis familiaris [24],87 mL
same,V,Canis familiaris [25],154 mL
same,V,Canis familiaris [26],114 mL
same,V,Canis familiaris [27],132 mL
same,CI,Canis familiaris [28],260 mL/min/kg
same,CI,Canis familiaris [29],186 mL/min/kg
same,HR,Canis familiaris [30],132 beats min-1
same,HR,Canis familiaris [31],87 beats min-1
same,MAP,Canis familiaris [32],118 mmHg
same,MAP,Canis familiaris [33],101 mmHg
same,SI,Canis familiaris [34],1.9 ml beat-1 kg-1
same,TPR,Canis familiaris [35],0.3 mmHg·min·kg/mL
same,TPR,Canis familiaris [36],0.56 mmHg·min·kg/mL
same,TVR,Canis familiaris [37],340 mmHg·min·g/mL
same,TVR,Canis familiaris [38],10 mmHg·min·g/mL
same,TVR,Canis familiaris [39],112 mmHg·min·g/mL
same,TVR,Canis familiaris [40],100 mmHg·min·g/mL
same,TVR,Canis familiaris [41],43 mmHg·min·g/mL
same,TVR,Canis familiaris [42],219 mmHg·min·g/mL
same,TVR,Canis familiaris [43],118 mmHg·min·g/mL
same,TVR,Canis familiaris [44],37 mmHg·min·g/mL
same,TVR,Canis familiaris [45],573 mmHg·min·g/mL
same,TVR,Canis familiaris [46],635 mmHg·min·g/mL
same,Ratio,Rattus norvegicus [47],8.4
same,Ratio,Rattus norvegicus [48],8.6
same,Ratio,Rattus norvegicus [49],17.4
same,Ratio,Rattus norvegicus [50],8.7
same,Ratio,Rattus norvegicus [51],5
same,Ratio,Rattus norvegicus [52],6.1
same,Ratio,Rattus norvegicus [53],3.6 and 9.6 and 9.1
same,Excretion Cl-,Canis familiaris [54],12.5 m equiv
